Reference: US9181266B2, “2-piperidin-1-yl-acetamide compounds for use as tankyrase inhibitors” (NOVARTIS AG, priority 2011, dated 2015)

Tests used:
Human PARP1 = Human PARP1 (Homo sapiens (Human), UniProt P09874); test: PARP1 autoparsylation assay (LC/MS detection of nicotinamide); assay type: biochemical; details: 20 nM enzyme, 250 μM β-NAD+, 60 min
Procedure: (§1) The autoparsylation activity of the TNKS 1/2 or PARP1/2 enzymes was measured by the liquid chromatography-mass spectrometry (LC/MS) detection of nicotinamide as readout. Compound activity in inhibiting the TNKS and PARP autoparsylation was evaluated by IC50 measurements.

PARP2 = PARP2 (Mus musculus (Mouse), UniProt O88554); test: PARP2 autoparsylation assay (LC/MS detection of nicotinamide); assay type: biochemical; details: 20 nM enzyme, 250 μM β-NAD+, 60 min
Procedure: as §1

[1] = test system: Wnt ligand-induced signaling in HEK293 cells; test: Wnt-responsive Super-TOpFlash (STF) luciferase reporter gene assay; assay type: cell-based; details: Homo sapiens, Wnt3A condition medium
How it was run: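 HEK293 cells (8000/well, 5% FBS medium) treated with 20% mouse L-cell Wnt3A conditioned medium plus compounds in 10-point serial dilution; luciferase read next day. Inhibition calculated relative to Wnt3A-induced signal without compound and background without Wnt3A CM or compound.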

[2] = test system: Non-small lung cancer ABC-1 cells; test: Cellular proliferation assay (CellTiter-Glo); assay type: cell-based; details: Homo sapiens, 72 h; ABC-1 cells, 3 days of compound treatment; read-out: ABC-1 IC50
Procedure: Cellular Proliferation Assay to Determine Compound Inhibition of Cancer Cell Growth
Viable cells were measured after 3 days of compound treatment using the CellTiter-Glo assay (Promega, G7570). Assay was performed following the manufacture protocol.

[3] = target: human tankyrase 1 PARP catalytic domain, TNKS1P (Homo sapiens (Human), UniProt O95271); test: TNKS1 autoparsylation assay (LC/MS detection of nicotinamide); details: read-out: TNKS1 AP IC50, 20 nM enzyme, 250 μM β-NAD+, 60 min
[4] = target: tankyrase 2 protein PARP domain, TNKS2P (Homo sapiens (Human), UniProt Q9H2K2); test: TNKS2 autoparsylation assay (LC/MS detection of nicotinamide); details: read-out: TNKS2 AP IC50, 20 nM enzyme, 250 μM β-NAD+, 60 min
[5] = test system: Axin2 protein in SW480 cells; test: Cellular ELISA assay of Axin2 protein stabilization; assay type: cell-based; details: Homo sapiens, 24 hrs, read-out: Axin AC50
How it was run: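 SW480 colorectal cells seeded overnight, treated with compound, then lysed. Axin2 in lysates measured by sandwich ELISA: anti-Axin2 capture antibody coated at 1 μg/ml (pH 9.2), lysate 2 h at room temperature, biotinylated anti-Axin2 detection 2 h, then streptavidin-HRP 30 min.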

Chain of human tankyrase 1 PARP catalytic domain, TNKS1P (O95271 1112-1317): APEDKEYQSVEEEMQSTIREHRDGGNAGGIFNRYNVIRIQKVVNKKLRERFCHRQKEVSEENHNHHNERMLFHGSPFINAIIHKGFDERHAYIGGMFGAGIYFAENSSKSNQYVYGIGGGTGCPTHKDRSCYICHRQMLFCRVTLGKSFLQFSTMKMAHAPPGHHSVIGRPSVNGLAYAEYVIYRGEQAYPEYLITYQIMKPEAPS
Chain of Human PARP1 (P09874 whole entry): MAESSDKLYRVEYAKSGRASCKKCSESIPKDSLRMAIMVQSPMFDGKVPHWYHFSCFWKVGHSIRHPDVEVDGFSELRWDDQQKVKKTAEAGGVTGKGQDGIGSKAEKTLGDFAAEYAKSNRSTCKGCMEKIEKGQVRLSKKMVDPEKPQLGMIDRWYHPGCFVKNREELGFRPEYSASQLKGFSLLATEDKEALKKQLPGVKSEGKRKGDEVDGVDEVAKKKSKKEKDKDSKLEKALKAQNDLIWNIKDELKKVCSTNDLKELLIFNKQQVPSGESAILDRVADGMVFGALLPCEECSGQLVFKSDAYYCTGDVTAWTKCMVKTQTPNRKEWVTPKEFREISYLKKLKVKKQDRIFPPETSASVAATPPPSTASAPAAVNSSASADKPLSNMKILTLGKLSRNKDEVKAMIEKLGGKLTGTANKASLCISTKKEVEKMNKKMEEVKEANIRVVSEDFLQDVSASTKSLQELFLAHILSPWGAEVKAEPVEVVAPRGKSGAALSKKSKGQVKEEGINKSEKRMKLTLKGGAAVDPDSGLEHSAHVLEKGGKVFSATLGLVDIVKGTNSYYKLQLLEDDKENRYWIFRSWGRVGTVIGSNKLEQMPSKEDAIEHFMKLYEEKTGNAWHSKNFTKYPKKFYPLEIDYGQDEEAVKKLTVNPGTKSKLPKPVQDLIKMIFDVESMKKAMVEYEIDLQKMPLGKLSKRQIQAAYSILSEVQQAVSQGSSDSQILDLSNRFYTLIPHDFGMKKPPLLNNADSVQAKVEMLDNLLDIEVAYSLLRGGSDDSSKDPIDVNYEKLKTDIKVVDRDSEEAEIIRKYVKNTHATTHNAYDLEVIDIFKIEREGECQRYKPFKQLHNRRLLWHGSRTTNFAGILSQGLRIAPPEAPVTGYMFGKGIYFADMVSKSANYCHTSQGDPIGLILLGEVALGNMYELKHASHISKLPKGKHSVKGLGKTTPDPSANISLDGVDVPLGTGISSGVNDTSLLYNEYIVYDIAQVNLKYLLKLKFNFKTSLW
Chain of tankyrase 2 protein PARP domain, TNKS2P (Q9H2K2 959-1164): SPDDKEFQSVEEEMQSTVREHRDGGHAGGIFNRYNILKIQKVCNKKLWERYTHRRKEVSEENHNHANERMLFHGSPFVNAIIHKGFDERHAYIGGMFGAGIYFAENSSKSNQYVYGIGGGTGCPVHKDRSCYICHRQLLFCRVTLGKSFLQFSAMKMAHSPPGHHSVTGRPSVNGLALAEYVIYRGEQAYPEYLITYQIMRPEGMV
Chain of PARP2 (O88554 whole entry): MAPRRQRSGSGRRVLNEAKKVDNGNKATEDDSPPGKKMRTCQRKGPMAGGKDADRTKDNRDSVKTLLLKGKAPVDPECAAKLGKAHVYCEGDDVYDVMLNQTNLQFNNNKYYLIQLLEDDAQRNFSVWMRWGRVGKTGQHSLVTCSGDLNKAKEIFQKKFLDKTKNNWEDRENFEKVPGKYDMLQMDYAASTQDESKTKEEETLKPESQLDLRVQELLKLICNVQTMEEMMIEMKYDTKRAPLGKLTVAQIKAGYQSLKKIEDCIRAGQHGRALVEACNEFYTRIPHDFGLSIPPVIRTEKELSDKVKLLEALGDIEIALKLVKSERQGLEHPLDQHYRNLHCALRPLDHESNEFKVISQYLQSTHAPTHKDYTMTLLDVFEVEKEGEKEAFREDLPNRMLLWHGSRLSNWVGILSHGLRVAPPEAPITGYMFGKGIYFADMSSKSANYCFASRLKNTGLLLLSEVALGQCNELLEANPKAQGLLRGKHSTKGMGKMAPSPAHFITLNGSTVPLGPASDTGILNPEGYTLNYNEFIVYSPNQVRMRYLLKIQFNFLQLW

SMILES | IC50 (Human PARP1) | IC50 (PARP2) | IC50 [1] | IC50 [2] | IC50 [3] | IC50 [4] | AC50 [5]
O=C(CN1CCC2(CC1)Cc1cc(F)ccc1C2=O)NCc1nc2c(c(=O)[nH]1)COCC2 [Example 61, 2-(5-Fluoro-1-oxo-1,3-dihydrospiro[indene-2,4′-piperidine]-1′-yl)-N-((4-oxo-4,5,7,8-tetrahydro-3H-pyrano[4,3-d]pyrimidin-2-yl)methyl)acetamide] | 6500 ± 1700 nM | > 19000 nM | 1600 ± 800 nM | 8120 nM | 25 ± 6 nM | 8 ± 2.6 nM | –
COc1ccc(C(=O)C2CCN(CC(=O)NCc3nc4c(c(=O)[nH]3)COCC4)CC2)cc1C [Example 93, 2-[4-(4-Methoxy-3-methyl-benzoyl)-piperidin-1-yl]-N-(4-oxo-3,5,7,8-tetrahydro-4H-pyrano[4,3-d]pyrimidin-2-ylmethyl)-acetamide] | 17100 ± 800 nM | 4260 ± 210 nM | 52 ± 12 nM | 2010 nM | 33 ± 14 nM | 12 nM | 1160 ± 150 nM
O=C(c1ccc(F)cc1)C1CCN(CC(=O)N(Cc2ccc(F)cc2)Cc2nc3c(c(=O)[nH]2)COCC3)CC1 [Example 15, 2-(4-(4-Fluorobenzoyl)piperidin-1-yl)-N-(4-fluorobenzyl)-N-((4-oxo-4,5,7,8-tetrahydro-3H-pyrano[4,3-d]pyrimidin-2-yl)methyl)acetamide] | > 19000 nM | > 19000 nM | 101 ± 74 nM | 540 nM | 138 ± 1 nM | 32 ± 1 nM | 804 ± 91 nM
COc1ccc(C(=O)C2CCN(CC(=O)N(Cc3nc4c(c(=O)[nH]3)COCC4)CC(F)F)CC2)cc1 [Example 50, N-(2,2-Difluoro-ethyl)-2-[4-(4-methoxy-benzoyl)-piperidin-1-yl]-N-(4-oxo-3,5,7,8-tetrahydro-4H-pyrano[4,3-d]pyrimidin-2-ylmethyl)-acetamide] | > 19000 nM | > 19000 nM | 9.5 ± 0.5 nM | 45 nM | 18 ± 7 nM | 12 ± 1 nM | 30 ± 6 nM
COc1cccc(CN(Cc2nc3c(c(=O)[nH]2)COCC3)C(=O)CN2CCC(C(=O)c3ccc(F)cc3)CC2)c1 [Example 18, 2-(4-(4-Fluorobenzoyl)piperidin-1-yl)-N-(3-methoxybenzyl)-N-((4-oxo-4,5,7,8-tetrahydro-3H-pyrano[4,3-d]pyrimidin-2-yl)methyl)acetamide] | > 19000 nM | > 19000 nM | 72 ± 62 nM | 535 ± 7 nM | 94 ± 1 nM | 23 nM | 493 ± 87 nM
O=C(CN1CCC(C(=O)c2ccc(OCCC3CC3)cc2)CC1)NCc1nc2c(c(=O)[nH]1)COCC2 [Example 89, 2-{4-[4-(2-Cyclopropyl-ethoxy)-benzoyl]-piperidin-1-yl}-N-(4-oxo-3,5,7,8-tetrahydro-4H-pyrano[4,3-d]pyrimidin-2-ylmethyl)-acetamide] | 1750 ± 20 nM | 920 ± 340 nM | 17 ± 4 nM | 87 nM | 21 ± 2 nM | 12 ± 2 nM | 52 ± 2 nM
O=C(CN1CCC(C(=O)c2ccc(F)cc2)CC1)NCc1nc2c(c(=O)[nH]1)CCCC2 [Example 10, 2-(4-(4-Fluorobenzoyl)piperidin-1-yl)-N-((4-oxo-3,4,5,6,7,8-hexahydroquinazolin-2-yl)methyl)acetamide] | 2700 ± 800 nM | 700 ± 80 nM | 27 ± 15 nM | 393 nM | 55 ± 3 nM | 36 ± 2 nM | 479 ± 24 nM
O=C(CN1CCC(C(=O)c2ccc(OCC3CC3)cc2)CC1)NCc1nc2c(c(=O)[nH]1)COCC2 [Example 85, 2-[4-(4-Cyclopropylmethoxy-benzoyl)-piperidin-1-yl]-N-(4-oxo-3,5,7,8-tetrahydro-4H-pyrano[4,3-d]pyrimidin-2-ylmethyl)-acetamide] | 4500 ± 580 nM | 1970 ± 260 nM | 5.2 ± 0.1 nM | 34 nM | 23 ± 2 nM | 10 ± 2 nM | 15 ± 2 nM
COc1ccc(C(=O)C2CCN(CC(=O)NCc3nc4c(c(=O)[nH]3)CCC4)CC2)cc1 [Example 11, 2-(4-(4-Methoxybenzoyl)piperidin-1-yl)-N-((4-oxo-4,5,6,7-tetrahydro-3H-cyclopenta[d]pyrimidin-2-yl)methyl)acetamide] | 17900 ± 1800 nM | 4620 ± 20 nM | 3 ± 1 nM | 18 nM | 28.5 ± 3.5 nM | 110 ± 140 nM | 15 ± 4 nM
O=C(c1ccc(F)cc1)C1CCN(CC(=O)N(Cc2nc3c(c(=O)[nH]2)COCC3)C[C@@H]2CCCO2)CC1 [Example 28, (S)-2-(4-(4-Fluorobenzoyl)piperidin-1-yl)-N-((4-oxo-4,5,7,8-tetrahydro-3H-pyrano[4,3-d]pyrimidin-2-yl)methyl)-N-((tetrahydrofuran-2-yl)methyl)acetamide] | > 19000 nM | > 19000 nM | 15 ± 4 nM | – | 24 ± 1 nM | 10 ± 1 nM | 101 ± 19 nM
C[C@H](c1ccccc1)N(Cc1nc2c(c(=O)[nH]1)COCC2)C(=O)CN1CCC(C(=O)c2ccc(F)cc2)CC1 [Example 4, 2-[4-(4-Fluoro-benzoyl)-piperidin-1-yl]-N-(4-oxo-3,5,7,8-tetrahydro-4H-pyrano[4,3-c]pyrimidin-2-ylmethyl)-N—((R)-1-phenyl-ethyl)-acetamide] | > 19000 nM | > 19000 nM | 59 ± 17 nM | – | 63 ± 5 nM | 16 ± 1 nM | 363 ± 37 nM
N#Cc1ccc(CN(Cc2nc3c(c(=O)[nH]2)COCC3)C(=O)CN2CCC(C(=O)c3ccc(F)cc3)CC2)s1 [Example 46, N-(5-Cyano-thiophen-2-ylmethyl)-2-[4-(4-fluoro-benzoyl)-piperidin-1-yl]-N-(4-oxo-3,5,7,8-tetrahydro-4H-pyrano[4,3-d]pyrimidin-2-ylmethyl)-acetamide] | > 19000 nM | > 19000 nM | 36 ± 8 nM | – | 53 ± 4 nM | 16 ± 1.4 nM | 275 ± 84 nM
CC[C@H](C)CN(Cc1nc2c(c(=O)[nH]1)COCC2)C(=O)CN1CCC(C(=O)c2ccc(F)cc2)CC1 [Example 25, 2-[4-(4-Fluoro-benzoyl)-piperidin-1-yl]-N—((S)-2-methyl-butyl)-N-(4-oxo-3,5,7,8-tetrahydro-4H-pyrano[4,3-d]pyrimidin-2-ylmethyl)-acetamide] | > 19000 nM | > 19000 nM | 30 ± 9 nM | – | 37 ± 4 nM | 13 ± 1 nM | 179 ± 26 nM
O=C(c1ccc(F)cc1)C1CCN(CC(=O)N(Cc2cccc(F)c2)Cc2nc3c(c(=O)[nH]2)COCC3)CC1 [Example 19, 2-(4-(4-Fluorobenzoyl)piperidin-1-yl)-N-(3-fluorobenzyl)-N-((4-oxo-4,5,7,8-tetrahydro-3H-pyrano[4,3-d]pyrimidin-2-yl)methyl)acetamide] | > 19000 nM | > 19000 nM | 92 ± 77 nM | – | 84 ± 7 nM | 21 ± 1 nM | 779 ± 83 nM
O=C(c1ccc(F)cc1)C1CCN(CC(=O)N(Cc2nc3c(c(=O)[nH]2)COCC3)CC2CC2)CC1 [Example 24, N-Cyclopropylmethyl-2-[4-(4-fluoro-benzoyl)-piperidin-1-yl]-N-(4-oxo-3,5,7,8-tetrahydro-4H-pyrano[4,3-d]pyrimidin-2-ylmethyl)-acetamide] | > 19000 nM | > 19000 nM | – | 276 ± 37 nM | 35 ± 10 nM | – | 320 ± 180 nM
